{
  "source": "patent US11672771B2",
  "about": "“Beta-alethine, immune modulators, and uses thereof” (AxImmune, Inc., priority 2016, dated 2023)",
  "key": {"[1]": {"details": "in vivo; cited from earlier work"}, "[2]": {"system": "CD4+ or CD8+ T cells that expressed PD-1, Lag3, or Tim3", "assay": "Checkpoint inhibitor expression and T cell percentages in blood 48 hours after one s.c. injection of β-alethine in Cloudman melanoma mice", "format": "in vivo, DBA mice", "method": "It was hypothesized that β-alethine could affect checkpoint inhibitors expression in vivo in tumor bearing animals. […] As a baseline, blood from each animal was taken (“Cloudman preBLT”). Mice then were treated with one subcutaneous (s.c.) injection of 30 mg/kg β-alethine. 48 hours after receiving the s.c. injection of β-alethine, blood was taken (“Cloudman postBLT”). […]"}, "[3]": {"system": "monocytes expressing PD-L1", "assay": "Ex vivo treatment of dog white blood cells, PD-L1 on monocytes by flow cytometry", "format": "cell-based", "details": "0-1000 uM, 24 hours incubation, autologous serum; in some of the dogs (three healthy, three with cancer)", "method": "In this study, white blood cells and serum were isolated from three healthy dogs and three dogs with cancer. Two dogs had osteosarcoma (Cancer_1 and Cancer_2 in FIG. 5) and one dog had melanoma (Cancer_3 in FIG. 5). Isolated white blood cells were grown in culture with autologous dog serum and varying doses of β-alethine (0-1000 uM). After 24 hours of incubation with β-alethine, monocytes were isolated and were examined for PD-L1 expression using flow cytometry analysis and a canine-specific anti-PD-L1 antibody. […] Further is documents cross species activity of BA. Current human clinical trials with immune checkpoint inhibitors also include antibodies antagonistic to PD-L1. Thus, β-alethine could also be used synergistically with anti-PD-L1 therapies."}, "NS-1 mouse myeloma": {"system": "NS-1 mouse myeloma", "details": "repeated administration as monotherapy soon after inoculation with relatively low doses of tumor; cited from earlier work"}, "[4]": {"system": "human peripheral blood mononuclear cells", "details": "polarized Th1 response; cited from earlier work"}, "[5]": {"system": "Cloudman melanoma cancer cell line", "assay": "Tumor growth with β-alethine, anti-PD-1 or both (concurrent or sequential) in Cloudman melanoma mice", "format": "in vivo", "details": "for tumor growth (tumor size): vs PBS, not statistically significant", "method": "After confirming tumor growth, mice were randomized into the treatment groups listed in Table 4. n=10 mice in the Low Dose, High Dose, q14, untreated, and PBS groups; n=5 mice in PD-1 and BLT/PD-1 groups.\nTumor growth was measured 3 times a week. […] In the PBS treated group, there likely was an artificially low reading in the PBS group on day 23. A repeat reading of tumor size at day 25 confirmed the original trajectory. […] In addition, by day 25, the cancers in all these groups were growing at rates similar to the PBS or untreated control.\nIn order to further examine this dramatic result, long-term immunity after relapse was determined. In the mice treated with three doses of PD-1 alone at days 15, 18, and 21, tumor size increased through day 29 until the average size was almost 50 mm^2. […] At day 29, mice in the single agent anti-PD-1 treated group received a dose of 30 mg/kg β-alethine subcutaneously, and then weekly thereafter. […] Thus, in total, 9 of 10 mice in either the combination treatment group or the anti-PD-1 rescued with β-alethine group had complete regression of their tumors."}, "lymphoma": {"system": "lymphoma", "details": "single agent; cited from earlier work"}, "MT-1 tumor xenograft": {"system": "MT-1 tumor xenograft", "details": "cited from earlier work"}, "Cloudman S-91 melanomas": {"system": "Cloudman S-91 melanomas", "details": "melanomas already established; cited from earlier work"}, "[6]": {"system": "Cloudman melanoma cancer cell line", "assay": "Tumor size after s.c. and intratumoral β-alethine in mice with established Cloudman melanoma", "format": "in vivo, DBA mice", "method": "At 38 days after tumor cell injection, the tumors were 17, 25 and 32 mm^2. At 38, 46, and 52 days after tumor cell injection, mice were treated with s.c. injections between the shoulder blades (distal to the tumor) of 30 mg/kg β-alethine in sterile saline (each s.c. injection of β-alethine is indicated by triangles in FIG. 2). Tumor size was monitored after each injection. […] However, the other two mice were then treated with β-alethine at 30 mg/kg intratumorally (i.t.) on day 55 post-tumor cell injection.\nFurther, when β-alethine was injected directly into the tumors, animals that previously had not responded or not fully responded via s.c. injection now responded, included apparent complete response."}, "multiple myeloma": {"system": "multiple myeloma", "details": "multiple myeloma (Benson et al., 2012); cited from earlier work"}, "[7]": {"details": "Post-, 48 hours after β-alethine s.c."}, "[8]": {"details": "Post-β-alethine, blood 48 hours after one s.c. injection of 30 mg/kg"}},
  "note": "Entries after “also recorded” stand apart in the source; their conditions may differ.",
  "data": [
    {"compound": "NCCC(=O)NCCSSCCNC(=O)CCN", "note": "[β-alethine, 3-amino-N-(2-{[2-(3-aminopropanamido)ethyl]disulfanyl}ethyl)propenamide]", "values": [
      {"measurement": "toxicity in animals", "setting": "[1]", "value": "non-toxic"},
      {"measurement": "number of molecule per cell (mean fluorescent intensity MFI) on cells that continued to have checkpoint molecule expression", "setting": "[2]; 48 hours after one s.c. injection of 30 mg/kg vs before", "value": "specific reduction"},
      {"measurement": "percentages of CD4 and CD8 T cells expressing PD-1, Lag3, or Tim3", "setting": "[2]; FIG. 1A, 48 hours after one s.c. injection of 30 mg/kg vs before", "value": "reduced percentages"},
      {"measurement": "% CD8+ of white blood cells", "setting": "[2]; [7]", "value": 0.9, "unit": "%"},
      {"measurement": "CD4-Lag3, percentage of cells expressing checkpoint inhibitor", "setting": "[2]; [7]", "value": 2.1, "unit": "%"},
      {"measurement": "CD4-PD1, percentage of cells expressing checkpoint inhibitor", "setting": "[2]; [7]", "value": 4.4, "unit": "%"},
      {"measurement": "CD4-Tim3, percentage of cells expressing checkpoint inhibitor", "setting": "[2]; [7]", "value": 1.3, "unit": "%"},
      {"measurement": "CD8-Lag3, percentage of cells expressing checkpoint inhibitor", "setting": "[2]; [7]", "value": 0.1, "unit": "%"},
      {"measurement": "CD8-PD1, percentage of cells expressing checkpoint inhibitor", "setting": "[2]; [7]", "value": 1.2, "unit": "%"},
      {"measurement": "CD8-Tim3, percentage of cells expressing checkpoint inhibitor", "setting": "[2]; [7]", "value": 0.2, "unit": "%"},
      {"measurement": "CD4-Lag3+ checkpoint inhibitor expression", "setting": "[2]; [8]", "value": 55, "unit": "MFI"},
      {"measurement": "CD4-PD1+ checkpoint inhibitor expression", "setting": "[2]; [8]", "value": 153, "unit": "MFI"},
      {"measurement": "CD4-Tim3+ checkpoint inhibitor expression", "setting": "[2]; [8]", "value": 93, "unit": "MFI"},
      {"measurement": "CD8-Lag3+ checkpoint inhibitor expression", "setting": "[2]; [8]", "value": 627, "unit": "MFI"},
      {"measurement": "CD8-PD1+ checkpoint inhibitor expression", "setting": "[2]; [8]", "value": 259, "unit": "MFI"},
      {"measurement": "CD8-Tim3 checkpoint inhibitor expression", "setting": "[2]; [8]", "value": 1283, "unit": "MFI"},
      {"measurement": "percentages of monocytes expressing PD-L1", "setting": "[3]", "value": "reduced the percentages of monocytes expressing PD-L1"},
      {"measurement": "survival rates", "setting": "NS-1 mouse myeloma", "value": "significantly increased survival rates"},
      {"measurement": "IFN-γ production", "setting": "[4]", "value": "increased IFN-γ production"},
      {"measurement": "IL-10 expression", "setting": "[4]", "value": "depressed IL-10 expression"},
      {"measurement": "T cell activation and proliferation", "setting": "[4]", "value": "increased T cell activation and proliferation"},
      {"measurement": "tumor growth (tumor size)", "setting": "[5]; High dose: 30 mg/kg s.c. once a week from day 15", "value": "delayed tumor growth temporarily"},
      {"measurement": "tumor growth (tumor size)", "setting": "[5]; Low dose: 30 ng/kg s.c. once a week from day 15", "value": "delayed tumor growth temporarily"},
      {"measurement": "toxicity", "setting": "[5]; low dose or high dose β-alethine alone", "value": "no obvious toxicity was observed"},
      {"measurement": "drug related adverse events", "setting": "lymphoma", "value": "no local or systemic drug related adverse events; also recorded: no drug-related adverse events"},
      {"measurement": "tumor size in lymphoma patients not anergic to recall antigens pre-trial", "setting": "lymphoma", "value": "reduction or stabilization in tumor sized in all patients with lymphoma who were not anergic to recall antigens pre-trial; also recorded: shrinkage or stabilization in all patients with lymphoma who were not anergic to recall antigens pre-trial"},
      {"measurement": "effectiveness of chemotherapy for late stage breast cancer", "setting": "MT-1 tumor xenograft; adjunct to chemotherapy", "value": "increase effectiveness of chemotherapy"},
      {"measurement": "toxicity due to the chemotherapy", "setting": "MT-1 tumor xenograft; adjunct to chemotherapy", "value": "did not increase toxicity due to the chemotherapy"},
      {"measurement": "localized tumor growth", "setting": "MT-1 tumor xenograft; breast cancer", "value": "effective in treating localized tumor growth"},
      {"measurement": "percent survival", "setting": "Cloudman S-91 melanomas", "value": "increase the percent survival"},
      {"measurement": "tumor response of second mouse after intratumoral injection", "setting": "[6]; 30 mg/kg i.t. on day 55 after s.c. injections, seen on day 66", "value": "complete regression of the tumor"},
      {"measurement": "tumor size of remaining mouse after series of i.t. injections", "setting": "[6]; 30 mg/kg i.t. on days 55, 68, 82", "value": "decrease in tumor size"},
      {"measurement": "start of tumor regression in the remaining mouse", "setting": "[6]; 30 mg/kg i.t. on days 55, 68, 82 after s.c. injections", "value": "~70 day post-tumor cell injection"},
      {"measurement": "complete tumor regression after s.c. injections", "setting": "[6]; 30 mg/kg s.c. at days 38, 46, 52, three mice, at day 56 post-tumor cell injection", "value": "one of the mice demonstrated a complete tumor regression"},
      {"measurement": "local or systemic side effects", "setting": "[6]; i.t. injections of 30 mg/kg in the mouse", "value": "not associated with any perceivable local or systemic side effects"}
    ]},
    {"compound": "IPH2101: anti-KIR antibody (Innate Pharma)", "values": [
      {"measurement": "anti-tumor activity", "setting": "multiple myeloma", "value": "demonstrated anti-tumor activity"}
    ]},
    {"compound": "lirlumab: anti-KIR antibody (Innate Pharma)", "values": [
      {"measurement": "anti-tumor activity", "setting": "multiple myeloma", "value": "demonstrated anti-tumor activity"}
    ]}
  ]
}
